This note sets out measurements from US9458153B2, “Dihydroquinolizinones for the treatment and prophylaxis of hepatitis B virus infection” (Hoffmann-La Roche Inc., priority 2014, dated 2016).

Each structure is given as a SMILES string. Where a name gives a salt, the structure may show the parent alone.

One experiment relates to HBsAg. Nature of the experiment: HBsAg assay (chemiluminescence immunoassay of secreted HBsAg in HepG2.2.15 culture supernatant). It counts as cell-based, HBV. Particulars: HBsAg secretion reduced by 50% vs no drug control; HepG2.2.15 cells; CLIA kit. In a few lines:
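HepG2.2.15 cells, which constitutively express HBV, were seeded in duplicate and treated with three-fold serial compound dilutions at 1% DMSO final. Secreted HBsAg in culture supernatant was measured semi-quantitatively by chemiluminescence immunoassay. IC50 was extrapolated from dose-response curves.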
What is called IC50 is the concentration needed to halve the response being measured. Higher therefore signals weaker potency in that assay. Compound `CCC1Cc2cc(OCC(C)C)c(OC)cc2-c2cc(=O)c(C(=O)O)cn21` (single isomer, unassigned; (+)) [Example 34, (+)-6-ethyl-9-isobutoxy-10-methoxy-2-oxo-6,7-dihydrobenzo[a]quinolizine-3-carboxylic acid] registered an IC50 of 4 nM.
`COCCCOc1cc2c(cc1OC)-c1cc(=O)c(C(=O)O)cn1C(C1(C)CC1)C2` (single isomer, unassigned; (-)) [Example 210, (−)-10-methoxy-9-(3-methoxypropoxy)-6-(1-methylcyclopropyl)-2-oxo-6,7-dihydrobenzo[a]quinolizine-3-carboxylic acid]: the 50% inhibitory concentration (IC50) was determined as 92 nM.
For `COc1cc2c(cc1OCCCSC)CC(C(C)(C)C)n1cc(C(=O)O)c(=O)cc1-2` (single isomer, unassigned; (+)) [Example 184, (+)-6-tert-butyl-10-methoxy-9-(3-methylsulfanylpropoxy)-2-oxo-6,7-dihydrobenzo[a]quinolizine-3-carboxylic acid], the IC50 turned out to be 1 nM.
Still for that read-out and setting: with `CCC1Cc2cc(OCC(C)(C)CO)c(OC)cc2-c2cc(=O)c(C(=O)O)cn21` (single isomer, unassigned; (-)) [Example 24, (−)-6-ethyl-9-(3-hydroxy-2,2-dimethyl-propoxy)-10-methoxy-2-oxo-6,7-dihydrobenzo[a]quinolizine-3-carboxylic acid] the figure was 1350 nM.
As for `COc1cc2c(cc1OCCCCCCO)CC(C(C)(C)C)n1cc(C(=O)O)c(=O)cc1-2` (stereo not shown) [Example 155, 6-tert-butyl-9-(6-hydroxyhexoxy)-10-methoxy-2-oxo-6,7-dihydrobenzo[a]quinolizine-3-carboxylic acid], the IC50 is 2 nM.
Still for that read-out and setting: under `CCOCCOc1cc2c(cc1OC)-c1cc(=O)c(C(=O)O)cn1C(CC)C2` (single isomer, unassigned; (+)) [Example 43, (+)-9-(2-ethoxyethoxy)-6-ethyl-10-methoxy-2-oxo-6,7-dihydrobenzo[a]quinolizine-3-carboxylic acid] stands 46 nM.
For the compound `COCCOc1cc2c(cc1Cl)-c1cc(=O)c(C(=O)O)cn1C(CC(C)C)C2` (single isomer, unassigned; (+)) [Example 105, (+)-10-chloro-6-isobutyl-9-(2-methoxyethoxy)-2-oxo-6,7-dihydrobenzo[a]quinolizine-3-carboxylic acid], the IC50 stood at 16 nM.
Regarding `COc1cc2c(cc1OCCCCCCO)CC(C(C)(C)C)n1cc(C(=O)O)c(=O)cc1-2` (single isomer, unassigned; (+)) [Example 156, (+)-6-tert-butyl-9-(6-hydroxyhexoxy)-10-methoxy-2-oxo-6,7-dihydrobenzo[a]quinolizine-3-carboxylic acid], inhibition was half-maximal at 1 nM (IC50).
`COc1cc2c(cc1OCCCSC)CC(C(C)(C)C)n1cc(C(=O)O)c(=O)cc1-2` (single isomer, unassigned; (-)) [Example 185, (−)-6-tert-butyl-10-methoxy-9-(3-methylsulfanylpropoxy)-2-oxo-6,7-dihydrobenzo[a]quinolizine-3-carboxylic acid]: the IC50 turned out to be 55 nM.
Still for that read-out and setting: with `COCCCOc1cc2c(c(Cl)c1F)-c1cc(=O)c(C(=O)O)cn1C(C(C)C)C2` (single isomer, unassigned; (+)) [Example 138, (+)-11-chloro-10-fluoro-6-isopropyl-9-(3-methoxypropoxy)-2-oxo-6,7-dihydrobenzo[a]quinolizine-3-carboxylic acid] the figure was 9 nM; with `CCC1Cc2cc(OCc3ccccc3)c(C)cc2-c2cc(=O)c(C(=O)O)cn21` (stereo not shown) [Example 115, 9-benzyloxy-6-ethyl-10-methyl-2-oxo-6,7-dihydrobenzo[a]quinolizine-3-carboxylic acid], 29 nM.
Regarding `COc1cc2c(cc1OC)-c1cc(=O)c(C(=O)O)cn1C(CC(C)C)C2` (single isomer, unassigned; (+)) [Example 102, (+)-6-isobutyl-9,10-dimethoxy-2-oxo-6,7-dihydrobenzo[a]quinolizine-3-carboxylic acid], 42 nM corresponded to half-maximal inhibition (IC50). This IC50 and that of the compound before are within 1.5-fold of each other.
`CCC1Cc2cc(OCC3CCOCC3)c(OC)cc2-c2cc(=O)c(C(=O)O)cn21` (single isomer, unassigned; (-)) [Example 50, (−)-6-ethyl-10-methoxy-2-oxo-9-(tetrahydropyran-4-ylmethoxy)-6,7-dihydrobenzo[a]quinolizine-3-carboxylic acid] yielded a 50% inhibitory concentration (IC50) of 400 nM.
Same read-out and setting: with `CCC1Cc2cc(OCC3CC3)c(OC)cc2-c2cc(=O)c(C(=O)O)cn21` (single isomer, unassigned; (-)) [Example 32, (−)-9-(cyclopropylmethoxy)-6-ethyl-10-methoxy-2-oxo-6,7-dihydrobenzo[a]quinolizine-3-carboxylic acid] the figure was 75 nM; with `CCC1Cc2cc(OCCOC)c(OC)cc2-c2cc(=O)c(C(=O)O)cn21` (single isomer, unassigned; (+)) [Example 28, (+)-6-ethyl-10-methoxy-9-(2-methoxyethoxy)-2-oxo-6,7-dihydrobenzo[a]quinolizine-3-carboxylic acid], 29 nM.
Still for that read-out and setting: with `COc1cc2c(cc1OCCCCCCNC(=O)OC(C)(C)C)CC(C(C)(C)C)n1cc(C(=O)O)c(=O)cc1-2` (stereo not shown) [Example 161, 9-[6-(tert-butoxycarbonylamino)hexoxy]-6-tert-butyl-10-methoxy-2-oxo-6,7-dihydrobenzo[a]quinolizine-3-carboxylic acid] the figure was 9 nM.
In turn, `COc1cc2c(cc1OCCCCCCCCN)CC(C(C)(C)C)n1cc(C(=O)O)c(=O)cc1-2` (stereo not shown) [Example 166, 9-(8-aminooctoxy)-6-tert-butyl-10-methoxy-2-oxo-6,7-dihydrobenzo[a]quinolizine-3-carboxylic acid] returned an IC50 of 6 nM.
`COc1cc2c(cc1OCCCSC)CC(C(C)(C)C)n1cc(C(=O)O)c(=O)cc1-2` (stereo not shown) [Example 183, 6-tert-butyl-10-methoxy-9-(3-methylsulfanylpropoxy)-2-oxo-6,7-dihydrobenzo[a]quinolizine-3-carboxylic acid] showed an IC50 of 2 nM. This IC50 is about 3-fold lower than that of the compound before.
Same read-out and setting: under `COCCCOc1cc2c(cc1Cl)-c1cc(=O)c(C(=O)O)cn1C(C(C)(C)C)C2` (single isomer, unassigned; (+)) [Example 203, (+)-6-tert-butyl-10-chloro-9-(3-methoxypropoxy)-2-oxo-6,7-dihydrobenzo[a]quinolizine-3-carboxylic acid] stands 0.3 nM.

Staying with this experiment, now noted: HBsAg secretion reduced by 50% vs no drug control; HepG2.2.15 cells; CLIA kit; hydrochloride.
On to `COc1cc2c(cc1OCCCCCN)CC(C(C)(C)C)n1cc(C(=O)O)c(=O)cc1-2` (single isomer, unassigned; (-)) [Example 174, (−)-9-(5-aminopentoxy)-6-tert-butyl-10-methoxy-2-oxo-6,7-dihydrobenzo[a]quinolizine-3-carboxylic acid hydrochloride], for which it took 2420 nM to reach half-maximal inhibition (IC50). This counts as single-digit micromolar.
Same read-out and setting: under `COc1cc2c(cc1OCCCCCCCCN)CC(C(C)(C)C)n1cc(C(=O)O)c(=O)cc1-2` (single isomer, unassigned; (+)) [Example 170, (+)-9-(8-aminooctoxy)-6-tert-butyl-10-methoxy-2-oxo-6,7-dihydrobenzo[a]quinolizine-3-carboxylic acid hydrochloride] stands 8 nM.

Still in this experiment, the particulars now being: Hepatitis B virus, HepG2.2.15, HBsAg secretion reduced by 50% vs no drug control; HepG2.2.15 cells; CLIA kit.
`CCC1Cc2c(ccc(C)c2C)-c2cc(=O)c(C(=O)O)cn21` (stereo not shown) [Example 113, 6-ethyl-8,9-dimethyl-2-oxo-6,7-dihydrobenzo[a]quinolizine-3-carboxylic acid]: the IC50 was determined as 640 nM.
Same read-out and setting: under `COc1cc2c(cc1OC)-c1cc(=O)c(C(=O)O)cn1C(CC(F)(F)F)C2` (stereo not shown) [Example 198, 9,10-dimethoxy-2-oxo-6-(2,2,2-trifluoroethyl)-6,7-dihydrobenzo[a]quinolizine-3-carboxylic acid] stands 230 nM; under `COCCCOc1cc2c(cc1OC)-c1cc(=O)c(C(=O)O)cn1C(C1CCC1)C2` (stereo not shown) [Example 197, 6-cyclobutyl-10-methoxy-9-(3-methoxypropoxy)-2-oxo-6,7-dihydrobenzo[a]quinolizine-3-carboxylic acid], 3 nM; under `CC1Cc2cc(N3CCN(C(=O)OC(C)(C)C)CC3)ccc2-c2cc(=O)c(C(=O)O)cn21` (stereo not shown) [Example 62, 9-(4-tert-butoxycarbonylpiperazin-1-yl)-6-methyl-2-oxo-6,7-dihydrobenzo[a]quinolizine-3-carboxylic acid], 990 nM.
`COc1cc2c(cc1OCCCN1CCCC1=O)CC(C(C)(C)C)n1cc(C(=O)O)c(=O)cc1-2` (stereo not shown) [Example 195, 6-tert-butyl-10-methoxy-2-oxo-9-[3-(2-oxopyrrolidin-1-yl)propoxy]-6,7-dihydrobenzo[a]quinolizine-3-carboxylic acid] came in with an IC50 of 57 nM.
The same measure, in the same setting: under `COc1cc2c(cc1OCCN)CC(C(C)(C)C)n1cc(C(=O)O)c(=O)cc1-2` (stereo not shown) [Example 177, 9-(2-aminoethoxy)-6-tert-butyl-10-methoxy-2-oxo-6,7-dihydrobenzo[a]quinolizine-3-carboxylic acid] stands 1380 nM.
On the same count and under the same terms, under `CC1Cc2cccc(Br)c2-c2cc(=O)c(C(=O)O)cn21` (stereo not shown) [Example 60, 11-bromo-6-methyl-2-oxo-6,7-dihydrobenzo[a]quinolizine-3-carboxylic acid] stands 1240 nM; under `CCC1Cc2cc(OCCC3CCCCC3)c(OC)cc2-c2cc(=O)c(C(=O)O)cn21` (stereo not shown) [Example 16, 9-(2-cyclohexylethoxy)-6-ethyl-10-methoxy-2-oxo-6,7-dihydrobenzo[a]quinolizine-3-carboxylic acid], 15 nM; under `CCCC1Cc2cc(OC)c(OC)cc2-c2cc(=O)c(C(=O)O)cn21` (stereo not shown) [Example 96, 9,10-dimethoxy-2-oxo-6-propyl-6,7-dihydrobenzo[a]quinolizine-3-carboxylic acid], 49 nM.
As to `CCc1cc2c(cc1OC)CC(CC)n1cc(C(=O)O)c(=O)cc1-2` (stereo not shown) [Example 88, 6,10-diethyl-9-methoxy-2-oxo-6,7-dihydrobenzo[a]quinolizine-3-carboxylic acid], the IC50 turned out to be 20 nM.
